# Test results as given in patent US20110086809A1, “Enteral Administration Of Arginine-Glutamine Dipeptide To Support Retinal, Intestinal, Or Nervous System Development” (priority 2009, published 2011).
# Columns and labels:
# [1] = tested on: intestinal injury induced by hyperoxia in a mouse model; test: Histological intestinal damage score in hyperoxia-exposed neonatal mice; assay type: in vivo; settings: ileum histology, score 0 to 4+ (0=no damage, 4=severe damage); hyperoxic conditions plus dipeptide by gavage; hyperoxia alone 3.5; FIG. 2
# Experimental: (§1) In the neonatal mouse model of oxygen-induced retinopathy, 7-day old mice are placed with their nursing dams in a 75% oxygen atmosphere for 5 days. Mouse pups receive twice a day gavage feedings of arginine-glutamine dipeptide or control solution (20 μL) starting on postnatal day 12 (P12) and continuing through postnatal day 17 (P17). In one experiment, different dosages of arginine-glutamine dipeptide (1.0, 2.5 and 5 g/kg·day as a hydrochloride salt, Bachem, Babendorf, Switzerland) are tested. In a second experiment, arginine-glutamine dipeptide (5 g/kg day) is given and a normoxia group is used as a control.
# (§2) After the fifth day following return to normoxia (P17), the animals are euthanized by injection of a lethal dose of a combination of ketamine (70 mg/kg body weight) and xylazine (15 mg/kg body weight) followed by cervical dislocation.
# Intestinal injury is evaluated using histological techniques. A portion of intestine from the ileum is fixed in 10% (w·v) neutral buffered formalin for 24 hours for light microscopy. The intestine is paraffin embedded, cut into 4 μm sections, mounted on glass slides, and stained with hematoxylin and eosin according to standard procedures. Histological analyses are performed using a damage scoring system from 0 to 4+ (0=no damage, 4=severe damage with mucosal sloughing) to determine the severity of the intestinal injury.
# [2] = tested on: Bcl-2; test: Brain Bcl-2 levels by immunoblotting in hyperoxia-exposed neonatal mice; assay type: in vivo; settings: mouse brain, hyperoxic conditions, treated with dipeptide; FIG. 3
# Experimental: as §1, §2
# Bcl-2 levels are determined using standard immunoblotting techniques. The brain is homogenized with a Polytron homogenizer, and the homogenates are stored in aliquots at −80° C. Gel electrophoresis is performed using the BioRad electrophoresis system (Carlsbad, Calif.). […] Protein bands are quantified by densitometry.
# [3] = tested on: caspase-3; test: Brain caspase-3 colorimetric activity assay in hyperoxia-exposed neonatal mice; assay type: in vivo, mouse; settings: compared to hyperoxic mice; FIG. 4
# Experimental: as §1, §2
# Caspase-3 activity is determined using a Caspase-3 Colorimetric Activity Assay Kit (Chemicon International, Inc., Temecula, Calif.). The brain is homogenized with a Polytron homogenizer, and the homogenates are stored in aliquots at −80° C.
# [4] = tested on: neonatal mouse model of oxygen-induced retinopathy; test: Neonatal mouse model of oxygen-induced retinopathy, pre-retinal nuclei count; assay type: in vivo; settings: FIG. 1
# Experimental: In the neonatal mouse model of oxygen-induced retinopathy, 7-day old mice are placed with their nursing dams in a 75% oxygen atmosphere for 5 days. Mouse pups receive twice a day gavage feedings of arginine-glutamine dipeptide or control solution (50 μL) starting on postnatal day 12 (P12) and continuing through postnatal day 17 (P17). Gavage feeds include a control (0.9% sodium chloride) and the test compounds and different doses of arginine-glutamine dipeptide (1.0, 2.5 and 5 g/kg·day). The daily dosage of the dipeptide is divided evenly between the two daily gavage feedings.
# After the fifth day following return to normoxia (P17), the animals are euthanized by injection of a lethal dose of a combination of ketamine (70 mg/kg body weight) and xylazine (15 mg/kg body weight) followed by cervical dislocation. The eyes are removed and fixed in 4% paraformaldehyde, embedded in paraffin, and sectioned. Pre-retinal nuclei are counted by masked observers. Efficacy of treatment is calculated as the percent average nuclei per section in the eyes of arginine-glutamine dipeptide treated animals versus control animals.
# Some of the eyes are taken for qualitative retinal flatmount analysis. For these mice, at the time of euthanasia, the mice are perfused with fluorescein isothiocyanate-labeled dextran to visualize the vasculature. […]
substance,measurement,setting,value
arginine-glutamine dipeptide,average intestinal damage score,[1],1.67
same,increased Bcl-2 expression in brain,[2],33%
same,reduction in brain caspase-3 activity,[3],32%
same,dose/response of reduction of nuclei per section,"[4]; dosages between 1 g/kg·day and 5 g/kg·day, highest effectiveness at 5 g/kg·day",highest level of effectiveness was shown at 5 g/kg·day
same,average number of nuclei per section in the eyes,"[4]; neonatal mice exposed to hyperoxia (75% oxygen, 5 days), gavage twice a day P12-P17, 1, 2.5 and 5 g/kg·day, versus control (0.9% sodium chloride)",decreased at all levels of administration
